# Experimental data taken from US20090030086A1, “ANTIMICROBIAL AGENTS” (priority 2005, published 2009).
# Read-outs that look alike come from different tables or passages of the source.
# What was measured:
# S. aureus ATCC 29213 [1] = assay: MBC assay; type: cell-based, Staphylococcus aureus
# Method: (§1) The staphylococci and enterococci were cultured and maintained on Mueller-Hinton Medium (agar and broth) at pH 7.2; they were incubated aerobically at 37° C. for 24 hours.
# (§2) This assay, normally carried out after an MIC assay, determines the minimum concentration of a compound that is lethal to the micro-organism being tested.
# (§3) These samples were then individually sub-cultured on non-selective agar medium, under the incubation conditions described above. Following incubation they were examined visually for bacterial growth.
# (§4) The following experiments all used S. aureus ATCC 29213 as the test organism. MIC, MBC and DDA assays, as described above, were carried out using a range of different benzoquinones and hydroquinones. Supplemented DDA assays, in the presence of salt, lipid and blood, were also conducted.
# S. aureus ATCC 29213 [2] = assay: MIC assay; type: cell-based, Staphylococcus aureus; settings: S. aureus ATCC 29213, Mueller-Hinton broth pH 7.2, aerobic, 37° C., 24 hours
# Method: 1. Staphylococcus aureus—the principal staphylococcal test micro-organism used in these studies was Staphylococcus aureus ATCC 29213. This strain is the one recommended for QC/QA purposes in Minimum Inhibitory Concentration (MIC) assays by the US Clinical and Laboratory Standards Institute (formerly the NCCLS), an FDA-recognised body.
# as §1
# (§5) This is a standard international method for quantitatively assessing the antimicrobial activity of a compound in a liquid medium. The method used a 96-well microtitre plate, capable of holding about 200 μl of liquid per well. […] The culture media were as described above for the relevant test organisms.
# (§6) The wells were inoculated with a liquid suspension of freshly grown micro-organism and incubated under the conditions described above. After incubation, the microtitre plate was examined visually (with the aid of a light box) for cloudiness in each well, which would indicate microbial growth. The MIC value was recorded as the lowest concentration of test compound required to inhibit microbial growth, i.e., the lowest concentration for which the liquid in the well remained clear.
# (§7) The assays were conducted in duplicate and included both negative (culture medium only) and positive (culture medium, diluting solvent and inoculum) controls.
# as §4
# P. acnes NCTC 737 [3] = assay: MIC assay; type: cell-based, Propionibacterium acnes; settings: P. acnes NCTC 737; Wilkins-Chalgren broth pH 6.0, anaerobic, 37° C., 72 hours
# Method: 2. Propionibacterium spp.—the principal propionibacterial strain used in these studies was Propionibacterium acnes NCTC 737.
# (§8) The Propionibacterium spp organisms were cultured and maintained on Wilkins-Chalgren Anaerobe Medium (agar and broth) at pH 6.0; cultures were incubated anaerobically at 37° C. for 72 hours.
# as §5, §6, §7
# (§9) MIC, MBC and DDA assays, as described above, were carried out using a range of different benzoquinones and hydroquinones. Supplemented DDA assays, in the presence of salt and lipid, were also conducted.
# S. aureus ATCC 29213 [4] = assay: Disc diffusion assay (DDA); type: cell-based, Staphylococcus aureus; settings: S. aureus ATCC 29213, unsupplemented agar, 200 μg per disc (thymoquinone 50 μg, 2,6-dimethoxy-p-benzoquinone 100 μg); for zone of inhibition at 200 µg/disc: Staphylococcus aureus, ATCC29213, read-out: DDA (diameter of zone of inhibition)
# Method: as §1
# (§10) A sterile paper disc was impregnated with a sample of the test compound and a minimum of 30 minutes allowed for the solvents to evaporate as far as possible. The disc was then placed on an agar plate onto which the test micro-organism had been inoculated. The plate was then incubated under the conditions described above, following which it was examined visually for signs of bacterial growth. […] The diameter of this zone of “inhibition” was measured using a ProtoCOL™ automated zone sizer (Synbiosis, Cambridge, UK).
# (§11) The area of the zone of inhibition was calculated from the measured zone diameter (D) using the formula π(D/2)^2.
# (§12) For most DDA assays, 200 μg of each compound was loaded onto each disc.
# P. acnes NCTC 737 [5] = assay: MBC assay; type: cell-based, Propionibacterium acnes; settings: P. acnes NCTC 737
# Method: as §8, §2, §3, §9
# P. acnes NCTC 737 [6] = assay: Disc diffusion assay (DDA); type: cell-based, Propionibacterium acnes; settings: P. acnes NCTC 737; unsupplemented agar; 200 μg per disc (2,6-dimethoxy-p-benzoquinone 100 μg)
# Method: as §8, §10, §11, §12
# S. aureus ATCC 29213 [7] = assay: Supplemented disc diffusion assay; type: cell-based, Staphylococcus aureus; settings: S. aureus ATCC 29213, 200 μg per disc (thymoquinone 50 μg, 2,6-dimethoxy-p-benzoquinone 100 μg); for zone of inhibition at 200 µg/disc: Staphylococcus aureus, ATCC29213, 24 h
# Method: as §1, §10
# (§13) Performance under these conditions can provide a more reliable indication of activity on topical application. For assays conducted using S. aureus strains, the supplements were defibrinated horse blood (5% v/v), lipid (Tween™ 80 at 1% v/v) and sodium chloride (100 mM). For those using Propionibacterium spp. strains, the supplements were lipid (Tween™ 80 at 1% v/v) and sodium chloride (100 mM).
# as §4, §12
# P. acnes NCTC 737 [8] = assay: Supplemented disc diffusion assay; type: cell-based, Propionibacterium acnes; settings: P. acnes NCTC 737, 200 μg per disc (2,6-dimethoxy-p-benzoquinone 100 μg)
# Method: as §8, §10, §13, §9, §12
# [9] = defibrinated horse blood 5% v/v
# [10] = Staphylococcus aureus, ATCC29213, read-out: MBC
# [11] = Staphylococcus aureus, ATCC29213, read-out: MIC
# [12] = Tween 80 at 1% v/v, read-out: DDA + lipid
# [13] = defibrinated horse blood 5% v/v, read-out: DDA + blood
# [14] = sodium chloride 100 mM, read-out: DDA + salt
MIC/MBC ratio (S. aureus ATCC 29213 [1]),MIC (P. acnes NCTC 737 [3]),MIC/MBC ratio (P. acnes NCTC 737 [5]),MIC (S. aureus ATCC 29213 [2]; [11]),Structure (SMILES),MBC (S. aureus ATCC 29213 [1]),MIC (S. aureus ATCC 29213 [2]),DDA (diameter of zone of inhibition) (S. aureus ATCC 29213 [4]),DDA (diameter of zone of inhibition) (P. acnes NCTC 737 [6]),DDA + lipid (S. aureus ATCC 29213 [7]; Tween 80 at 1% v/v),DDA + blood (S. aureus ATCC 29213 [7]; [9]),DDA + salt (S. aureus ATCC 29213 [7]; sodium chloride 100 mM),MBC (S. aureus ATCC 29213 [1]; [10]),zone of inhibition at 200 µg/disc (S. aureus ATCC 29213 [7]; [12]),zone of inhibition at 200 µg/disc (S. aureus ATCC 29213 [7]; [13]),zone of inhibition at 200 µg/disc (S. aureus ATCC 29213 [7]; [14]),zone of inhibition at 200 µg/disc (S. aureus ATCC 29213 [4]),MBC (P. acnes NCTC 737 [5]),DDA + lipid (P. acnes NCTC 737 [8]; Tween 80 at 1% v/v),DDA + salt (P. acnes NCTC 737 [8]; sodium chloride 100 mM)
0.25,–,–,–,"Cc1cc(O)c(C)c(C)c1O [2,5,6-trimethyl-p-hydroquinone]",31.25 µg/mL,7.8 µg/mL,63.40 mm,–,56.97 mm,0.0 mm,61.63 mm,–,–,–,–,–,–,–,–
1,–,–,–,"CC(C)(C)c1cc(O)c(C(C)(C)C)cc1O [2,5-di-t-butyl-p-hydroquinone]",15.6 µg/mL,15.6 µg/mL,10.06 mm,–,10.58 mm,10.89 mm,11.21 mm,–,–,–,–,–,–,–,–
0.25,–,–,62.5 µg/mL,"CC(C)(C)C1=CC(=O)C=C(C(C)(C)C)C1=O [2,6-di-t-butyl-p-benzoquinone]",–,–,–,–,–,–,–,250 µg/mL,9.37 mm,0 mm,0 mm,0 mm,–,–,–
1,62.5 µg/mL,0.5,–,Cc1cc(O)ccc1O [2-methyl-p-hydroquinone],–,–,25.70 mm,0.0 mm,–,–,–,–,–,–,–,–,125 µg/mL,13.07 mm,0.0 mm
1,–,–,62.5 µg/mL,Cc1cccc(O)c1O [3-methylcatechol],–,–,–,–,–,–,–,62.5 µg/mL,18.7 mm,0 mm,20.2 mm,19.8 mm,–,–,–

# The next lines start with the compound.
Structure (SMILES),MIC/MBC ratio (S. aureus ATCC 29213 [1]),MIC (P. acnes NCTC 737 [3]),MIC/MBC ratio (P. acnes NCTC 737 [5]),MIC (S. aureus ATCC 29213 [2]; [11]),MBC (S. aureus ATCC 29213 [1]),MIC (S. aureus ATCC 29213 [2]),DDA (diameter of zone of inhibition) (S. aureus ATCC 29213 [4]),DDA (diameter of zone of inhibition) (P. acnes NCTC 737 [6]),DDA + lipid (S. aureus ATCC 29213 [7]; Tween 80 at 1% v/v),DDA + blood (S. aureus ATCC 29213 [7]; [9]),DDA + salt (S. aureus ATCC 29213 [7]; sodium chloride 100 mM),MBC (S. aureus ATCC 29213 [1]; [10]),zone of inhibition at 200 µg/disc (S. aureus ATCC 29213 [7]; [12]),zone of inhibition at 200 µg/disc (S. aureus ATCC 29213 [7]; [13]),zone of inhibition at 200 µg/disc (S. aureus ATCC 29213 [7]; [14]),zone of inhibition at 200 µg/disc (S. aureus ATCC 29213 [4]),MBC (P. acnes NCTC 737 [5]),DDA + lipid (P. acnes NCTC 737 [8]; Tween 80 at 1% v/v),DDA + salt (P. acnes NCTC 737 [8]; sodium chloride 100 mM)
"Cc1c(O)ccc(O)c1C [2,3-dimethyl-p-hydroquinone]",1,7.8 µg/mL,0.5,–,7.8 µg/mL,7.8 µg/mL,33.41 mm,18.75 mm,–,–,–,–,–,–,–,–,–,–,–
"Oc1cc(Cl)c(O)c(Cl)c1 [2,6-dichloro-p-hydroquinone]",1,–,–,–,31.25 µg/mL,31.25 µg/mL,16.29 mm,–,14.32 mm,11.83 mm,16.19 mm,–,–,–,–,–,–,–,–
Oc1ccc(O)c(Br)c1 [2-bromo-p-hydroquinone],1,–,–,–,31.25 µg/mL,31.25 µg/mL,20.75 mm,–,17.43 mm,14.94 mm,18.99 mm,–,–,–,–,–,–,–,–
Oc1ccc(O)c(Cl)c1 [2-chloro-p-hydroquinone],1,–,–,–,7.8 µg/mL,7.8 µg/mL,17.54 mm,–,16.81 mm,13.70 mm,19.30 mm,–,–,–,–,–,–,–,–
